Measured values published in PMC7478165, “Derivatisation of parthenolide to address chemoresistant chronic lymphocytic leukaemia” (MedChemComm, 2019).
Where two headings read alike, the source gives them in different places.

Assays:
MEC1 CLL cell line [1] = assay: alamarBlue assay, in vitro antileukaemic activity against MEC1 CLL cell line; assay type: cell-based
Text: Defective p53-signalling increases genomic instability and drives tumour progression. A high frequency of p53 inactivation is found in relapsed, treatment-resistant, high risk CLL.[30] […] Owing to resource availability a subset of up to ten of these compounds was prioritised for further investigation. Compounds 2d, 2e, 2j, 2aa, 5a, 5d, 5e, 5f, 5ab and 6b were selected on the basis of reasons including ease of synthetic access, diversity across the chemical space probed and novelty. Those prepared under conditions (i)Scheme 1 (2d, 5a and 6b) were available on a scale and in a purity to directly permit follow-up studies, whereas compounds prepared under conditions (ii)Scheme 1 were prepared on a small scale so were resynthesised. These seven compounds (2e, 2j, 2aa, 5d, 5e, 5f and 5ab) were isolated on >30 mg scale in high purity and progressed to more following studies.
Following the identification of 5f as the most promising drug-like derivative of PTL from the aforementioned parallel/high-throughput screening, the anti-leukaemic activity of 5f was tested once more and compared directly with that of PTL (1) and DMAPT (2a), which serve as comparators and positive controls.
Amine 7 was successfully prepared as follows: 4-Piperidinecarboxylic acid was N-Boc protected to deliver 8 in 92% yield.[43] In order to confidently assign the NMR spectra of compound 8 J-MOD, HSQC and ^1H–^1H COSY were helpful, particularly in establishing that a broad resonance in the proton-decoupled ^13C NMR spectrum, centred on 42.8 ppm, corresponds to the ring-carbons bonded to nitrogen. The carboxylic acid of 8 was converted to the corresponding ethyl-3-keto-propanoate 9 in 24% yield. Conversion of 9 to the N-Boc protected congener 10, was achieved by treatment with acetamidine hydrochloride and potassium carbonate, furnishing 10 in 77% yield. Treatment with trifluoroacetic acid delivered desired compound 7 in 99% yield for the Boc-deprotection step (scale 200 mg, 17% over four linear steps). Thus, evidencing accessibility of amine 7 and with it in hand, it was timely to probe any activity arising from the amine alone. MEC1 sensitivity to 1, 5f and 7 was compared in parallel using the alamarBlue® assay (Fig. 6). […] A pre-peer-reviewed preprint of this article was deposited and may be viewed elsewhere.[44]

[2] = Stability in aqueous solution, pH 7.4; assay type: physicochemical; conditions: for half-life: pH 7.4, read-out: Stability pH 7.4 T1/2; for stability in aqueous solution: result in words
Procedure: Compounds 2d, 2e, 2f, 2g, 2j, 2aa, 5a, 5d, 5e, 5f, 5ab and 6b were subjected to in vitro DMPK testing. […] The other three (2d, 2j and 2aa) were not retained for further investigation due to poor stability (T1/2 at pH 7.4: 13, 107 and 76 min, Table 1, entries 1, 3 and 4 respectively). One obvious aspect contributing to observed stability is the propensity for PTL derivatives of this type to undergo a retro-amination (reverse-Michael-type mechanism), indeed this reverse reaction is often claimed as a pro-drug mode of action.[29a],[33] […] It is a reasonable assertion that activity observed for these unstable compounds could well be ascribed to free PTL generated rapidly in the assay.

[3] = Microsomal stability assay (mouse); conditions: for Mouse microsomal stability: mouse microsomes; for microsomal CLint: mouse, liver microsomes
[4] = Caco-2 permeability assay; assay type: in vitro ADME; conditions: human; for efflux ratio: Caco-2, pH 7.4
MEC1 CLL cell line [5] = assay: cells; parameters: alamarBlue (resazurin reduction) viability assay in MEC1 CLL cells; conditions: Homo sapiens, MEC1, 24 h; read-out: alamarBlue EC50 (uM) average
Text: Defective p53-signalling increases genomic instability and drives tumour progression. A high frequency of p53 inactivation is found in relapsed, treatment-resistant, high risk CLL.[30] […] Owing to resource availability a subset of up to ten of these compounds was prioritised for further investigation. Compounds 2d, 2e, 2j, 2aa, 5a, 5d, 5e, 5f, 5ab and 6b were selected on the basis of reasons including ease of synthetic access, diversity across the chemical space probed and novelty. Those prepared under conditions (i)Scheme 1 (2d, 5a and 6b) were available on a scale and in a purity to directly permit follow-up studies, whereas compounds prepared under conditions (ii)Scheme 1 were prepared on a small scale so were resynthesised. These seven compounds (2e, 2j, 2aa, 5d, 5e, 5f and 5ab) were isolated on >30 mg scale in high purity and progressed to more following studies. Biological efforts at Sygnature Discovery (where differing to University of Birmingham) MEC1 cells were obtained from the American Type Culture Collection (Manassas, VA 20110 USA) and were routinely cultured in RPMI 1640 medium (Sigma-Aldrich) supplemented with 1% L-glutamine (Sigma-Aldrich), 1% Penicillin/Streptomycin (Sigma-Aldrich) and 10% FBS (Gibco). The MEC1 proliferation assay was conducted by performing a re-feed of the MEC1 cells 24 h prior to cell seeding. On the day of the assay, cells were seeded into a 384-well assay plate at a density of 12,500 cells/well in 25 μL of complete MEC1 medium. Compound treatment was performed on the day of cell seeding, with compounds prepared as duplicate compound response curves (final DMSO concentration of 0.6%). Post compound treatment, MEC1 assay plates were returned to a 37 °C/5% CO2 incubator for 24 h of incubation. Following compound treatment, cellular viability was determined by measuring reduction of alamarBlue® reagent (Invitrogen). alamarBlue® reagent (2.5 μL) was added to each assay well to give a 1:10 dilution of the neat stock and assay plates were incubated for 3 h at 37 °C/5% CO2. Reduction of alamarBlue® was determined using an Envision Xcite plate reader (Perkin Elmer) with an excitation wavelength of 560 nm set and an emission wavelength of 590 nm set. Cell viability was determined by normalising raw fluorescent data to a cell only high control and Parthenolide treated low control to provide percentage viability readout. Data was plotted and EC50 values extracted and reported EC50s represent an average of at least two independent assays.

[6] = MEC1 cell line pEC50 minus calculated log P
[7] = MEC1 cell line, alamarBlue assay, library screen, read-out: EC50 ave.
[8] = first of two columns headed A to B
[9] = second of two columns headed A to B
[10] = Homo sapiens, MEC1, MEC1 cell line, alamarBlue assay, library screen, read-out: EC50 ave.

SMILES: CCN(CCO)C[C@@H]1C(=O)O[C@H]2[C@H]1CC/C(C)=C/CC[C@@]1(C)O[C@H]21 [C00001]
- LipE pEC50–clog P (MEC1 CLL cell line [1]; [6]): 3.31
- EC50 (MEC1 CLL cell line [1]; [7]): 4.7 µM
- Stability pH 7.4 T1/2 [2]: 13 min

SMILES: CCn1cc(CN(C[C@@H]2C(=O)O[C@H]3[C@H]2CC/C(C)=C/CC[C@@]2(C)O[C@H]32)C(C)C)cn1 [C00002]
- LipE pEC50–clog P (MEC1 CLL cell line [1]; [6]): 1.61
- EC50 (MEC1 CLL cell line [1]; [7]): 5.6 µM
- Mouse microsomal stability [3, 8]: 828
- Mouse microsomal stability [3, 9]: 2
- half-life [2]: > 2 h

SMILES: COc1ccc(CN(C)C[C@@H]2C(=O)O[C@H]3[C@H]2CC/C(C)=C/CC[C@@]2(C)O[C@H]32)cc1OC [C00003]
- LipE pEC50–clog P (MEC1 CLL cell line [1]; [6]): 1.48
- EC50 (MEC1 CLL cell line [1]; [7]): 5.6 µM
- Stability pH 7.4 T1/2 [2]: 107 min

SMILES: C/C1=C\CC[C@@]2(C)O[C@@H]2[C@H]2OC(=O)[C@@H](CN(C)CCc3ccccc3)[C@@H]2CC1 [C00004]
- LipE pEC50–clog P (MEC1 CLL cell line [1]; [6]): 2.52
- EC50 (MEC1 CLL cell line [1]; [7]): 5.9 µM
- Stability pH 7.4 T1/2 [2]: 76 min

SMILES: C/C1=C\CC[C@@]2(C)O[C@@H]2[C@H]2OC(=O)[C@@H](CN3CCC(Oc4cccnc4)CC3)[C@@H]2CC1 [C00006]
- LipE pEC50–clog P (MEC1 CLL cell line [1]; [6]): 2.48
- EC50 (MEC1 CLL cell line [1]; [7]): 5.4 µM
- Mouse microsomal stability [3, 8]: 251
- Mouse microsomal stability [3, 9]: 6
- half-life [2]: > 2 h

SMILES: C/C1=C\CC[C@@]2(C)O[C@@H]2[C@H]2OC(=O)[C@@H](CN3CCC(O)(c4ccccc4)CC3)[C@@H]2CC1 [C00007]
- LipE pEC50–clog P (MEC1 CLL cell line [1]): 1.90
- EC50 (MEC1 CLL cell line [1]; [7]): 6 µM
- half-life [2]: > 2 h

SMILES: C/C1=C\CC[C@@]2(C)O[C@@H]2[C@H]2OC(=O)[C@@H](CN3CCC(OCc4cccnc4)CC3)[C@@H]2CC1 [C00009]
- efflux ratio [4]: 0.8
- Papp A→B ([4]; Caco-2, pH 7.4, A to B): 10.9 ×10⁻⁶ cm/s
- Papp B→A ([4]; Caco-2, pH 7.4, B to A): 9.1 ×10⁻⁶ cm/s
- LipE pEC50–clog P (MEC1 CLL cell line [1]; [6]): 2.29
- EC50 (MEC1 CLL cell line [1]; [7]): 7.6 µM
- Mouse microsomal stability [3, 8]: 128
- Mouse microsomal stability [3, 9]: 11
- half-life [2]: > 2 h

SMILES: C/C1=C\CC[C@@]2(C)O[C@@H]2[C@H]2OC(=O)[C@@H](CN(C)CCc3ccccc3)[C@@H]2CC1 [Compound 2aa]
- EC50 (MEC1 CLL cell line [1]; [7]): < 15 µM
- half-life [2]: 1.27 h

SMILES: CCN(CCO)C[C@@H]1C(=O)O[C@H]2[C@H]1CC/C(C)=C/CC[C@@]1(C)O[C@H]21 [Compound 2d]
- EC50 (MEC1 CLL cell line [1]; [7]): < 15 µM
- half-life [2]: 0.217 h

SMILES: CCn1cc(CN(C[C@@H]2C(=O)O[C@H]3[C@H]2CC/C(C)=C/CC[C@@]2(C)O[C@H]32)C(C)C)cn1 [Compound 2e]
- EC50 (MEC1 CLL cell line [1]; [7]): < 15 µM
- microsomal CLint [3]: > 100 µL/min/mg
- stability in aqueous solution [2]: greater than two hours

SMILES: C/C1=C\CC[C@@]2(C)O[C@@H]2[C@H]2OC(=O)[C@@H](CN(CC3CC3)C(C)C)[C@@H]2CC1 [Compound 2f]
- EC50 (MEC1 CLL cell line [5]): 12.2 µM
- EC50 (MEC1 CLL cell line [1]; [10]): < 15 µM

SMILES: C/C1=C\CC[C@@]2(C)O[C@@H]2[C@H]2OC(=O)[C@@H](CN(CCO)C3CCCCC3)[C@@H]2CC1 [Compound 2g]
- EC50 (MEC1 CLL cell line [5]): 10 µM
- EC50 (MEC1 CLL cell line [1]; [10]): < 15 µM

SMILES: COc1ccc(CN(C)C[C@@H]2C(=O)O[C@H]3[C@H]2CC/C(C)=C/CC[C@@]2(C)O[C@H]32)cc1OC [Compound 2j]
- EC50 (MEC1 CLL cell line [5]): 9.7 µM
- EC50 (MEC1 CLL cell line [1]; [7]): < 15 µM
- half-life [2]: 1.78 h

SMILES: CC1=CCCC2(C)OC2C2OC(=O)C(CSCCO)C2CC1 (stereo not shown) [Compound 3]
- activity against the MEC1 CLL cell line (MEC1 CLL cell line [1]; result in words): lack of activity

SMILES: C/C1=C\CC[C@@]2(C)O[C@@H]2[C@H]2OC(=O)[C@@H](CN3CCC(OCc4cccnc4)CC3)[C@@H]2CC1 [Compound 5ab]
- EC50 (MEC1 CLL cell line [1]; [10]): < 15 µM
- microsomal CLint [3]: > 100 µL/min/mg
- stability in aqueous solution [2]: greater than two hours

SMILES: CC1=CCCC2(C)OC2C2OC(=O)C(CN3CCCCC3)C2CC1 (stereo not shown) [Compound 5b]
- EC50 (MEC1 CLL cell line [1]; Homo sapiens, MEC1, read-out: EC50 ave., MEC1 cell line, alamarBlue assay, library screen): < 15 µM
- stability in aqueous solution [2]: greater than two hours

SMILES: C/C1=C\CC[C@@]2(C)O[C@@H]2[C@H]2OC(=O)[C@@H](CN3CCC(Oc4cccnc4)CC3)[C@@H]2CC1 [Compound 5d]
- EC50 (MEC1 CLL cell line [1]; [7]): < 15 µM
- microsomal CLint [3]: > 100 µL/min/mg
- stability in aqueous solution [2]: greater than two hours

SMILES: C/C1=C\CC[C@@]2(C)O[C@@H]2[C@H]2OC(=O)[C@@H](CN3CCC(c4ccc(C(N)=O)cc4)CC3)[C@@H]2CC1 [Compound 5h]
- EC50 (MEC1 CLL cell line [5]): 13.8 µM
- EC50 (MEC1 CLL cell line [1]; [10]): < 15 µM

SMILES: C/C1=C\CC[C@@]2(C)O[C@@H]2[C@H]2OC(=O)[C@@H](CN[C@@H](Cc3ccccc3)C(=O)O)[C@@H]2CC1 [Compound 6b]
- efflux ratio [4]: 2.7
- EC50 (MEC1 CLL cell line [1]; [10]): < 15 µM
- microsomal CLint [3]: 9 µL/min/mg
- stability in aqueous solution [2]: greater than two hours

SMILES: C=C1C(=O)O[C@@H]2[C@H]3O[C@]3(C)CC/C=C(\C)CC[C@@H]12 [PTL, parthenolide]
- EC50 (MEC1 CLL cell line [1]; Homo sapiens, MEC1, MEC1 cells, alamarBlue, 1, 5f and 7 compared in parallel, CalcuSyn, read-out: EC50): 3.6 µM
- EC50 (MEC1 CLL cell line [1]; Homo sapiens, MEC1, MEC1 cells, alamarBlue, direct comparison of 5f with PTL and DMAPT, n = 5, read-out: EC50): 6.2 µM
